Reference: patent US20150079000A1, “Labelled Quinoxaline Derivatives as Multimodal Radiopharmaceuticals and Their Precursors” (INSTITUT NATIONAL DE LA SANTET DE LA RECHERCHE MEDICALE, priority 2012, published 2015)

How the values were obtained:
melanin polymers = assay: Biodistribution by secondary ion mass spectrometry (SIMS) analysis; format: in vivo, C57BL/6J mice; settings: B16BL6 melanoma cells colony in lung, 1 h after i.v. 0.1 μmol/mice
Experimental: B16BL6 cells were injected intravenously into male C57BL/6J mice to obtain, within 12 days, tumour cell colonies in lungs mimicking pulmonary micrometastases. After i.v. administration of compound (1) (0.1 μmol/mice in 0.2 mL of a hydroalcoholic solution (5% v/v, 0.9% NaCl) per mouse), mice were killed 1 h post injection. Lungs were removed and small pieces of tissue including B16 melanoma colonies were isolated and fixed by slam freezing on an LN2-precooled metal mirror. Samples were dehydrated by freeze drying starting at −110 to −10° C. before embedding in Spurr resin. Serial sections of 0.4 μm thick were deposited on stainless steel holders for SIMS analysis or on glass slides for light microscopy observation.

[1] = system: B16 murine melanoma tumours; assay: Ex vivo biodistribution of [18F]-labelled compounds; format: in vivo, C57BL/6J mice
Experimental: (§1) All our studies were performed in accordance with French and European Economic Community (86-609, EEC) guidelines for care of laboratory animals. Protocols were performed under the authorization of the French Direction des Services Veterinaires (authorization no. CE 86-12). Male C57BL/6J mice were originating from Charles River laboratories and maintained at 21° C. with a 12 h/12 h light/dark cycle, fed with a breeding diet (diet A04 from Safe, Villemoisson, France) and received water ad libitum. For transplantation B16BL6 cell suspension were grown in a monolayer culture to confluence, after which cells were trypsinized, washed with phosphate buffer saline (PBS) and they were resuspended in PBS. Mice were anesthetized by isoflurane (4% for induction and 2±0.5% for maintaining in oxygen flux) inhalation. The primary tumour model was induced by subcutaneous injection of 3×10^5 melanoma B16B16 cells in 0.1 mL on the right shoulder of mice.
Ex vivo biodistribution studies: An ex vivo biodistribution study was performed for better comparison of [^18F](1) and [^18F](5). Experimentations were undertaken at day-10 or day-14 after cell inoculation (n=3-6/group). […] Tumours and major organs and tissues were promptly excised, harvested, weighted and their radioactivity counted using a calibrated γ-counter with a 400 to 600 keV energy window. After radioactive decay correction, results were expressed as percentage of injected dose per gram of tissue (% ID/g).

[2] = octanol/water (PBS buffer) partition coefficient (log D); format: physicochemical
[3] = radiochemical stability of the radiotracer after preparation; format: physicochemical
B16BL6 tumour = assay: PET imaging in B16BL6 tumour bearing mice; format: in vivo, C57BL/6J mice; settings: 1 h p.i., day-15
Experimental: as §1
Whole-body PET scans were acquired 1 h after bolus injection of […] of the appropriate [^18F]-compound in a volume of 0.15 ml via the tail vein. Mice were anesthetized by intraperitoneal (i.p.) administration (200 μL/mouse) of a ketamine-xylazine mixture in saline: ketamine (100 mg/kg, Imalgene™, Rhône Mérieux, Lyon, France) and xylazine (10 mg/kg, Rompun™, Bayer, France) before radiotracer injection and imaged by using a small-animal PET device, eXplore Vista microPET instrument (GE Healthcare). PET images were acquired by using static mode during 20 min. The acquired data were reconstructed using the 2-Dimensional ordered-subsets expectation maximization (OSEM) algorithm and corrected from decay, scatter and randoms. No corrections were applied for partial volume or attenuation.
Regional tracer uptake was quantified by standard region-of-interest (ROI) analysis with eXplore Vista software package. A manual 2D-ROI was drawn around the tumour in each slice where tumour was visible, and on several subsequent coronal planes containing muscle tissue at the forelimb. Results are expressed by percentage of injected dose per gram of tissue (% ID/g).
PET imaging was performed 1 h post injection of tracers in B16BL6 tumour bearing mice at day-15 after tumours cell inoculation.

[4] = Calculation of absorbed dose to the tumour and organs (MIRD); format: in vivo, C57BL/6J mice; settings: iodine 131
melanoma model B16BL6 = assay: Internal radiotherapy with [131I](1), B16BL6 model; format: in vivo, mice
[5] = system: SKMEL-3 human melanoma model; assay: Internal radiotherapy with [131I](1), SKMEL-3 model; format: in vivo, mice
Experimental: Compound (1) was labelled with iodine-131, at high specific activity, from the corresponding stannane precursor, as described in detail in example 8. The labeling was performed with a radiochemical yield of 80% and a radiochemical purity>99%. […] The antitumour activity of the compound [^131I](1) was also evaluated in SKMEL-3 human melanoma model after injections of 25 MBq of [^131I](1): Two groups of mice were used receiving two injections at day-33 and day-40 or three injections of at day-33, day-40 and day-47 post inoculation. Results were compared to control group injected with saline.

CCN(CCNC(=O)c1cnc2cc(I)ccc2n1)CCOCCOCCOCCF [Compound 1, N-(12-ethyl-1-fluoro-3,6,9-trioxa-12-azatetradecan-14-yl)-6-iodoquinoxaline-2-carboxamide]
colocalisation with melanin polymers (SIMS, CN− and iodine-127 signals) (melanin polymers): perfect colocalisation

CCN(CCNC(=O)c1cnc2cc(I)ccc2n1)CCOCCOCCOCCOCCOCCOCCOCC[18F] [[^18F](5)]
% ID/g (tumour) ([1]; 1 h p.i.): 9.81 ± 2.96 % ID/g
% ID/g Blood ([1]; 1 h p.i.): 1.15 ± 0.19 % ID/g
% ID/g Bones ([1]; 1 h p.i.): 1.82±0.55 % ID/g
% ID/g Brain ([1]; 1 h p.i.): 1.03 ± 0.18 % ID/g
% ID/g Ceacum ([1]; 1 h p.i.): 6.37 ± 4.84 % ID/g
% ID/g Colon + faeces ([1]; 1 h p.i.): 7.39 ± 1.36 % ID/g
% ID/g Eyes ([1]; 1 h p.i.): 12.24 ± 4.39 % ID/g
% ID/g Heart ([1]; 1 h p.i.): 1.58 ± 0.24 % ID/g
% ID/g Kidney ([1]; 1 h p.i.): 3.60 ± 1.74 % ID/g
% ID/g Liver ([1]; 1 h p.i.): 2.02 ± 0.19 % ID/g
% ID/g Lung ([1]; 1 h p.i.): 1.75 ± 0.18 % ID/g
% ID/g Muscle ([1]; 1 h p.i.): 1.07 ± 0.35 % ID/g
% ID/g Pancreas ([1]; 1 h p.i.): 2.63 ± 1.33 % ID/g
% ID/g Skin ([1]; 1 h p.i.): 1.22 ± 0.22 % ID/g
% ID/g Small intestine ([1]; 1 h p.i.): 16.68 ± 7.93 % ID/g
% ID/g Spleen ([1]; 1 h p.i.): 2.35 ± 0.91 % ID/g
% ID/g Stomach ([1]; 1 h p.i.): 5.87 ± 3.32 % ID/g
TBR Tumour-to-Blood Ratio ([1]; 1 h p.i.): 8.29 ± 2.87
TBoR Tumour-to-Bone Ratio ([1]; 1 h p.i.): 5.35 ± 0.82
TMR Tumour-to-Muscle Ratio ([1]; 1 h p.i.): 9.48 ± 2.41
% ID/g (tumour) ([1]; 2 h p.i.): 5.81 ± 1.37 % ID/g
% ID/g Blood ([1]; 2 h p.i.): 1.37 ± 0.30 % ID/g
% ID/g Bones ([1]; 2 h p.i.): 2.13 ± 0.19 % ID/g
% ID/g Brain ([1]; 2 h p.i.): 1.03 ± 0.10 % ID/g
% ID/g Ceacum ([1]; 2 h p.i.): 12.10 ± 10.31 % ID/g
% ID/g Colon + faeces ([1]; 2 h p.i.): 8.14 ± 1.78 % ID/g
% ID/g Eyes ([1]; 2 h p.i.): 12.10 ± 1.85 % ID/g
% ID/g Heart ([1]; 2 h p.i.): 1.70 ± 0.24 % ID/g
% ID/g Kidney ([1]; 2 h p.i.): 3.52 ± 1.02 % ID/g
% ID/g Liver ([1]; 2 h p.i.): 2.31 ± 0.64 % ID/g
% ID/g Lung ([1]; 2 h p.i.): 1.72 ± 0.72 % ID/g
% ID/g Muscle ([1]; 2 h p.i.): 1.04 ± 0.24 % ID/g
% ID/g Pancreas ([1]; 2 h p.i.): 1.56 ± 0.38 % ID/g
% ID/g Skin ([1]; 2 h p.i.): 0.94 ± 0.51 % ID/g
% ID/g Small intestine ([1]; 2 h p.i.): 19.51 ± 5.43 % ID/g
% ID/g Spleen ([1]; 2 h p.i.): 2.38 ± 0.87 % ID/g
% ID/g Stomach ([1]; 2 h p.i.): 7.35 ± 4.79 % ID/g
TBR Tumour-to-Blood Ratio ([1]; 2 h p.i.): 4.01 ± 1.12
TBoR Tumour-to-Bone Ratio ([1]; 2 h p.i.): 2.75 ± 0.80
TMR Tumour-to-Muscle Ratio ([1]; 2 h p.i.): 5.75 ± 1.45
% ID/g (tumour) ([1]; 3 h p.i.): 6.76±1.35 % ID/g
% ID/g Blood ([1]; 3 h p.i.): 0.99 ± 0.20 % ID/g
% ID/g Bones ([1]; 3 h p.i.): 3.61 ± 1.12 % ID/g
% ID/g Brain ([1]; 3 h p.i.): 1.72 ± 0.67 % ID/g
% ID/g Ceacum ([1]; 3 h p.i.): 29.31 ± 17.94 % ID/g
% ID/g Colon + faeces ([1]; 3 h p.i.): 12.63 ± 7.83 % ID/g
% ID/g Eyes ([1]; 3 h p.i.): 13.43 ± 2.17 % ID/g
% ID/g Heart ([1]; 3 h p.i.): 3.00 ± 1.12 % ID/g
% ID/g Kidney ([1]; 3 h p.i.): 2.60 ± 1.69 % ID/g
% ID/g Liver ([1]; 3 h p.i.): 2.60 ± 1.37 % ID/g
% ID/g Lung ([1]; 3 h p.i.): 2.37 ± 0.67 % ID/g
% ID/g Muscle ([1]; 3 h p.i.): 1.11 ± 0.34 % ID/g
% ID/g Pancreas ([1]; 3 h p.i.): 1.81 ± 0.66 % ID/g
% ID/g Skin ([1]; 3 h p.i.): 1.47 ± 0.49 % ID/g
% ID/g Small intestine ([1]; 3 h p.i.): 18.62 ± 13.65 % ID/g
% ID/g Spleen ([1]; 3 h p.i.): 2.35 ± 0.98 % ID/g
% ID/g Stomach ([1]; 3 h p.i.): 5.39 ± 3.13 % ID/g
TBR Tumour-to-Blood Ratio ([1]; 3 h p.i.): 5.27±0.20
TBoR Tumour-to-Bone Ratio ([1]; 3 h p.i.): 2.16 ± 1.15
TMR Tumour-to-Muscle Ratio ([1]; 3 h p.i.): 6.64±2.69
in vivo defluorination ([1]; 3 h p.i.): Partial in vivo defluorinations
octanol/water (PBS buffer) partition coefficient (log D) [2]: 0.95±0.02
radiochemically stable at room temperature after preparation [3]: at least 6 h
eyes uptake (B16BL6 tumour): 5.53±1.35 % ID/g
muscles activity (B16BL6 tumour): 1.01±0.09 % ID/g
tumour uptake (B16BL6 tumour): 6.63±1.64 % ID/g
tumour/muscle ratio (B16BL6 tumour): 6.62±1.90

CCN(CCNC(=O)c1cnc2cc([131I])ccc2n1)CCOCCOCCOCCF [[^131I](1)]
Biological half life (h) ([4]; Adipose): 38.28 h
Effective half life ([4]; Adipose): 47.78 h
Biological half life (h) ([4]; Bladder (empty)): 27.57 h
Effective half life ([4]; Bladder (empty)): 32.17 h
Biological half life (h) ([4]; Blood): 27.45 h
Effective half life ([4]; Blood): 32.02 h
Biological half life (h) ([4]; Brain): 27.55 h
Effective half life ([4]; Brain): 41.63 h
Biological half life (h) ([4]; Colon with Faeces): 28.48 h
Effective half life ([4]; Colon with Faeces): 26.92 h
Biological half life (h) ([4]; Eyes): 125.03 h
Effective half life ([4]; Eyes): 356.77 h
Biological half life (h) ([4]; Heart): 68.51 h
Effective half life ([4]; Heart): 46.93 h
Biological half life (h) ([4]; Kidney): 27.60 h
Effective half life ([4]; Kidney): 32.22 h
Biological half life (h) ([4]; Liver): 25.87 h
Effective half life ([4]; Liver): 29.89 h
Biological half life (h) ([4]; Lung): 37.73 h
Effective half life ([4]; Lung): 34.21 h
Biological half life (h) ([4]; Muscle): 37.36 h
Effective half life ([4]; Muscle): 46.36 h
Biological half life (h) ([4]; Pancreas): 29.04 h
Effective half life ([4]; Pancreas): 40.79 h
Biological half life (h) ([4]; Skin): 46.20 h
Effective half life ([4]; Skin): 60.79 h
Biological half life (h) ([4]; Small Bowels): 23.67 h
Effective half life ([4]; Small Bowels): 26.99 h
Biological half life (h) ([4]; Spleen): 33.66 h
Effective half life ([4]; Spleen): 33.43 h
Biological half life (h) ([4]; Stomach): 27.36 h
Effective half life ([4]; Stomach): 31.89 h
Biological half life (h) ([4]; Testes): 27.57 h
Effective half life ([4]; Testes): 32.16 h
Biological half life (h) ([4]; Tumour): 71.67 h
Effective half life ([4]; Tumour): 114.18 h
Biological half life (h) ([4]; bones): 12.92 h
Effective half life ([4]; bones): 13.85 h
octanol/water (PBS buffer) partition coefficient (log D) [2]: 0.95±0.04
metastasis dissemination (melanoma model B16BL6; B16BL6 melanoma model): inhibition of metastasis dissemination
tumour doubling time (melanoma model B16BL6; B16BL6 tumours, two i.v. injections of 20 MBq at day-7 and day-11): 2.9 ± 0.5 days
median survival time (melanoma model B16BL6; treated B16BL6 bearing-mice): 27 days
tumour doubling time ([5]; SKMEL-3 tumours, injections of 25 MBq once weekly for 2 or 3 weeks): 26.5 ± 7.8 days
median survival time ([5]; treated SKMEL-3 bearing-mice): 111 days
